Test results as given in publication PMC11695203, “A new peptide inhibitor of C1QBP exhibits potent anti‐tumour activity against triple negative breast cancer by impairing mitochondrial function and suppressing homologous recombination repair” (Clinical and Translational Medicine, 2025).

What was measured:
[1] = tested on: C1QBP; conditions: cited from earlier work
Description: C1QBP, targeted by PDBAG1, predominantly localises in the mitochondrial matrix and plays a crucial role in mitochondrial protein translation and function.[3] It represents a promising therapeutic target for various human cancers, including breast cancer. We observed significant overexpression of C1QBP in the TNBC subtype, which correlated with worse DFS. Based on our findings, we believe PDBAG1 primarily affects tumour cells, with minimal toxicity to normal cells. Although PDBAG1's precursor peptide is derived from normal adipose tissue, its impact on adipose metabolism is likely less pronounc ...

[2] = tested on: MDA-MB-231 cells; assay: CCK-8 assay, MDA-MB-231; type: cell-based, human; conditions: CCK-8, MDA-MB-231 and MDA-MB-468, co-treated 72 h / 24 h
Procedure: The cells were cultured at the corresponding cell densities in 96‐well plates. Following treatment with specific concentrations of reagents for designated durations, the CCK8 reagent was added to each well at a final ratio of 10% (v/v). After incubation for 2 h, the absorbance at 450 nm was measured using a microplate reader (H4, Synergy). For the Edu assay, logarithmic growth phase cells were inoculated into 96‐well plates at a density of 3 × 10^4 cells/mL. Subsequently, they were treated with specific concentrations of reagents for designated durations and then replaced with EdU medium containing a final concentration of 10 µmol/L. The cells were incubated for an additional period of 2 h. Following PBS washing and fixation with 4% paraformaldehyde for 30 min, Apollo staining reaction solution was added according to instructions and allowed to react for another 30 min. This was followed by addition of DAPI staining reaction solution for a duration of 10 min before washing again with PBS. Three randomly selected fields of vision from each group in each well were calculated and photographed under a fluorescence microscope. […] Three random fields of view were selected to quantify the number of cells that traversed through the microporous membrane.

[3] = tested on: MDA-MB-231 xenograft; assay: MDA-MB-231 tumour model in nude mice; type: in vivo, BALB/c nude mice; conditions: PJ34-HCL combination study, harvested tumours
Procedure: (§1) Four‐week‐old BALB/c nude mice (Charles River Laboratories, Beijing, China) were subcutaneously inoculated in the breast fat pad with 1 × 10^7 MDA‐MB‐231 cells. The treatment group received 10 mg/kg PDBAG1, while the control group was administered an equal volume of PBS. For preliminary experiment of immunocompetent mice, 4‐week‐old BALB/c mice (Charles River Laboratories) were subcutaneously inoculated in the mammary fat pad with 1 × 10^6 4T1 cells. The treatment group received 10 mg/kg PDBAG1, while the control group was administered an equal volume of PBS. For evaluating the PJ34‐HCL combination, 28 randomly assigned BALB/c nude mice were divided into respective treatment groups as follows: Group 1 served as a negative control and received PBS; Group 2 received intraperitoneal injections of 10 mg/kg PDBAG1 every 3 days; Group 3 received 1 mg/kg PJ34‐HCL every 3 days; Group 4 was treated with a combination of 10 mg/kg PDBAG1 and 1 mg/kg PJ34‐HCL every 3 days. Both PDBAG1 and PJ34‐HCL were dissolved in specific concentrations of normal saline and administered intraperitoneally. All mice were sacrificed 4 weeks after inoculation, and their subcutaneous xenografts were resected and weighed. Subsequently, formalin‐fixed subcutaneous tumours were processed into paraffin‐embedded sections for routine IHC analysis. […]

[4] = tested on: MDA-MB-231 and MDA-MB-468 cells; conditions: FITC-labelled PDBAG1 50 µM, 6 h, fluorescence microscopy
Procedure: The cells were seeded in a 24‐well plate, and FITC‐labelled PDBAG1 was added to the cell culture medium at a final concentration of 50 µM. After three washes with PBS, performed 6 h post peptide addition, the samples were fixed with 4% paraformaldehyde for 15 min and stained with DAPI (5 µg/mL) for 5 min. Following PBS washing, fluorescence microscopy was employed for observation.

[5] = tested on: HEK-293T and MCF-10A cell lines; conditions: 30 μM, 24 hours
[6] = In vivo toxicity: body weight and HE staining of spleen, liver, kidney; conditions: PDBAG1 10 mg/kg, PJ34-HCL 1 mg/kg i.p. every 3 days
Procedure: as §1

[7] = target: T1, human C1QBP 74–282 (human, UniProt Q07021 74-282); assay: ITC; PDBAG1 (500 µM) in the syringe into C1QBP 74–282 (17.0 µM) in the cell, 25°C, MicroCal VP ITC, no Zn2+, one set-of-sites model; buffer by the methods 20 mM HEPES pH 7.5, 600 mM NaCl, 1 mM EDTA, 1 mM EGTA, 5% glycerol, by the legend 20 mM potassium phosphate, 100 mM NaCl, pH 7.4; conditions: both partners purified
T1 construct: also called p32; source: vector a gift from Dr Adrian R. Krainer
T1 sequence (looked up): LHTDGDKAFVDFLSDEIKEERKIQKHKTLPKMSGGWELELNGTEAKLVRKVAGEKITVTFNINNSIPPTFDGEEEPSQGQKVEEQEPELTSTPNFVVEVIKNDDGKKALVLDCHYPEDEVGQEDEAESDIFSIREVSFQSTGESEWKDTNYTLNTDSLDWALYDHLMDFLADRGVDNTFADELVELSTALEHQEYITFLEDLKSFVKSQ

In the case of “CGKRK [tumour-specific vascular homing peptide]”, the “Binding to C1QBP” value [1] is listed as “can bind to cell surface‐associated C1QBP”.

In the case of `CN(C)CC(=O)Nc1ccc2[nH]c(=O)c3ccccc3c2c1.Cl` [PJ34‐HCL], the “Cell viability with PARP inhibitor, alone or combined with PDBAG1” value [2] is reported as “exhibited significant effects” and the “C1QBP protein in tumour tissue (IHC, western blot)” value [3] is reported as “no substantial changes”.

In the case of CGNKRTRGC [LyP‐1], the “Binding to C1QBP” value [1] is listed as “can bind to cell surface‐associated C1QBP”.

In the case of “Ac-GRKKRRQRRRPPQQASKKVCIVGSGNWGSAIA-NH2 [PDBAG1]”, the Cell penetration [4] is reported as “potent cell‐penetrating properties”, the “Morphological alterations in non-tumour cells” value [5] is reported as “no obvious in morphological alterations” and the “Body weight during or after drug administration” value [6] is reported as “no significant differences”. The “HE staining of spleen, liver and kidney” value [6] was “no notable deviations from normal structure and morphology”.

B1: PDBAG1 (peptide derived from breast adipose tissue GPD1) (peptide)
peptide: GRKKRRQRRRPPQQASKKVCIVGSGNWGSAIA
notes: stretch of glycerol-3-phosphate dehydrogenase 1 (GPD1), found by peptidomics in benign breast adipose tissue of patients; also called peptide PDBAG1; source: synthetic peptide (Fmoc solid-phase synthesis, Shanghai Science Peptide Biological Technology Co)
With B1 the Kd [7] was 334 nM.
